The values below come from ChEMBL document CHEMBL3877274, “Preparation of novel ring-A fused azole derivatives of betulin and evaluation of their cytotoxicity” (Eur J Med Chem, 2017).

SMILES strings stand for the structures. pIC50: −log10 of the molar value. Calls of active or inactive are those of the source. The calls are words filed in the database; no cut-off is given here.

A short description of data set [1]: Cytotoxicity against human A549 cells measured after 72 hrs by MTT assay. Conditions: A549, 72 h. Format: functional, cell-based.
The nature of data set [2]: Cytotoxicity against human MS cells measured after 72 hrs by MTT assay. The class given is functional, cell-based. A general note: Tetrazolium assays rely on reduction of a dye to a coloured formazan, in cell work by metabolically active cells.
A short description of data set [3]: Cytotoxicity against human Hep2 cells measured after 72 hrs by MTT assay. Format: functional, cell-based. Conditions: HEp-2, 72 h.
A short description of data set [4]: Cytotoxicity against human HCT116 cells measured after 72 hrs by MTT assay. Conditions: HCT-116, 72 h. The class given is functional, cell-based.
A short description of data set [5]: Cytotoxicity against human TE32 cells measured after 72 hrs by MTT assay. The class given is functional, cell-based. Conditions: RD.
Data set [6] is described as follows: Cytotoxicity against human HEK293 cells measured after 72 hrs by MTT assay. The class given is toxicity, cell-based.
Data set [7] can be described thus: Toxicity in po or ip dosed mouse administered as single dose measured after 14 days. The class given is organism-based. To be noted: in vivo.
Data set [8] has as its system HCT-116. Kind of data set: Cytotoxicity against human HCT116 cells at 5.7 uM by MTT assay. Format: functional, cell-based. To be noted: TDE = time-dependent effect.
The test system of data set [9] is HCT-116. As to the kind of experiment: Induction of apoptosis in human HCT116 cells assessed as mitochondrial membrane permeability loss by measuring rhodamine 123 accumulation at 5.7 uM measured after 18 hrs by fluorescence inverted microscopic analysis. The class given is functional, cell-based.
Data set [10] relates to HCT-116. Kind of data set: Induction of apoptosis in human HCT116 cells assessed as chromatin condensation at 5.7 uM measured after 18 hrs by Hoechst 33258 staining based fluorescence inverted microscopic analysis. Format: functional, cell-based.
Data set [11] has as its system HCT-116. As to the kind of experiment: Induction of apoptosis in human HCT116 cells assessed as viable cells at 5.7 uM measured after 18 hrs by Annexin-V FITC/propidium iodide staining based flow cytometry (reference value: 92.83%). The class given is functional. To be noted: HCT-116, 18 h, read-out: Activity.
Data set [12] deals with HCT-116. As to the kind of experiment: Induction of apoptosis in human HCT116 cells assessed as early apoptotic cells at 5.7 uM measured after 18 hrs by Annexin-V FITC/propidium iodide staining based flow cytometry (reference value: 3.92%). The class given is functional. In general terms: Flow cytometry measures light scatter and fluorescence of single cells or particles in a stream.

The subject of data set [13] is HCT-116. Kind of data set: Induction of apoptosis in human HCT116 cells assessed as late apoptotic cells at 5.7 uM measured after 18 hrs by Annexin-V FITC/propidium iodide staining based flow cytometry (reference value: 1.13%). The class given is functional.
The subject of data set [14] is HCT-116. As to the kind of experiment: Induction of apoptosis in human HCT116 cells assessed as necrotic cells at 5.7 uM measured after 18 hrs by Annexin-V FITC/propidium iodide staining based flow cytometry (reference value: 2.12%). The class given is functional.
Data set [15] deals with HCT-116. As to the kind of experiment: Induction of apoptosis in human HCT116 cells assessed as increase in caspase-8 activity at 5.7 uM measured up to 24 hrs. The class given is functional, cell-based.
For data set [16], the system named is HCT-116. As to the kind of experiment: Induction of apoptosis in human HCT116 cells assessed as increase in caspase-3/7 activity at 5.7 uM measured up to 24 hrs. The class given is functional, cell-based.
In data set [17] the test system is HCT-116. Kind of data set: Induction of apoptosis in human HCT116 cells assessed as increase in cck18 level at 5.7 uM measured after 18 hrs. The class given is functional, cell-based.
Data set [18] deals with HCT-116. As to the kind of experiment: Induction of apoptosis in human HCT116 cells assessed as appearance of half moon or crescent shape nuclei at 5.7 uM measured after 18 hrs by Hoechst 33258 staining based fluorescence inverted microscopic analysis. Format: functional, cell-based.
Data set [19] has as its system HCT-116. As to the kind of experiment: Induction of apoptosis in human HCT116 cells assessed as nuclear fragmentation at 5.7 uM measured after 18 hrs by Hoechst 33258 staining based fluorescence inverted microscopic analysis. The class given is functional, cell-based.
The subject of data set [20] is HCT-116. As to the kind of experiment: Induction of apoptosis in human HCT116 cells assessed as formation of apoptotic bodies at 5.7 uM measured after 18 hrs by Hoechst 33258 staining based fluorescence inverted microscopic analysis. The class given is functional, cell-based.
Data set [21] has as its system HCT-116. Kind of data set: Induction of apoptosis in human HCT116 cells assessed as mitochondrial membrane permeability loss by measuring rhodamine 123 accumulation at 6.7 uM measured after 18 hrs by fluorescence inverted microscopic analysis. Format: functional, cell-based.
The test system of data set [22] is HCT-116. Kind of data set: Induction of apoptosis in human HCT116 cells assessed as chromatin condensation at 6.7 uM measured after 18 hrs by Hoechst 33258 staining based fluorescence inverted microscopic analysis. Format: functional, cell-based.
Data set [23] concerns HCT-116. Kind of data set: Induction of apoptosis in human HCT116 cells assessed as viable cells at 6.7 uM measured after 18 hrs by Annexin-V FITC/propidium iodide staining based flow cytometry (reference value: 92.83%). The class given is functional. To be noted: HCT-116, 18 h, read-out: Activity.
Data set [24] has as its system HCT-116. As to the kind of experiment: Induction of apoptosis in human HCT116 cells assessed as early apoptotic cells at 6.7 uM measured after 18 hrs by Annexin-V FITC/propidium iodide staining based flow cytometry (reference value: 3.92%). Format: functional.
For data set [25], the system named is HCT-116. Kind of data set: Induction of apoptosis in human HCT116 cells assessed as late apoptotic cells at 6.7 uM measured after 18 hrs by Annexin-V FITC/propidium iodide staining based flow cytometry (reference value: 1.13%). Format: functional.
The test system of data set [26] is HCT-116. Kind of data set: Induction of apoptosis in human HCT116 cells assessed as necrotic cells at 6.7 uM measured after 18 hrs by Annexin-V FITC/propidium iodide staining based flow cytometry (reference value: 2.12%). Format: functional.
In data set [27] the test system is HCT-116. Kind of data set: Induction of apoptosis in human HCT116 cells assessed as appearance of half moon or crescent shape nuclei at 6.7 uM measured after 18 hrs by Hoechst 33258 staining based fluorescence inverted microscopic analysis. The class given is functional, cell-based.
The test system of data set [28] is HCT-116. As to the kind of experiment: Induction of apoptosis in human HCT116 cells assessed as nuclear fragmentation at 6.7 uM measured after 18 hrs by Hoechst 33258 staining based fluorescence inverted microscopic analysis. Format: functional, cell-based.
Data set [29] relates to HCT-116. Kind of data set: Induction of apoptosis in human HCT116 cells assessed as formation of apoptotic bodies at 6.7 uM measured after 18 hrs by Hoechst 33258 staining based fluorescence inverted microscopic analysis. Format: functional, cell-based.

As to `C=C(C)[C@@H]1CC[C@]2(COC(C)=O)CC[C@]3(C)[C@H](CC[C@@H]4[C@@]5(C)C=C(NC(C)=O)C(=O)C(C)(C)[C@@H]5CC[C@]43C)[C@@H]12`, the pIC50 in [1] is 4.43; in data set [2] it was under 4.00; in data set [3], 4.66; in data set [4], 4.08; in data set [5], 4.47.

With `C=C(C)[C@@H]1CC[C@]2(CO)CC[C@]3(C)[C@H](CC[C@@H]4[C@@]5(C)CCC(=O)C(C)(C)[C@@H]5CC[C@]43C)[C@@H]12` [BETULONE], the pIC50 in data set [1] is 4.48; in data set [2], 4.74; in data set [3], 4.65; in [4], 4.47; in data set [5], 4.88.

On to `C=C(C)[C@@H]1CC[C@]2(C(=O)O)CC[C@]3(C)[C@H](CC[C@@H]4[C@@]5(C)Cc6c(nnc(C)[n+]6[O-])C(C)(C)[C@@H]5CC[C@]43C)[C@@H]12`, for which the pIC50 in [1] is under 4.00; in [2], under 4.00; in data set [3], 5.82; in data set [4] it was 5.85; in data set [5], under 4.00. The IC50 at 72 h in data set [6] stood at 2.1 µM.

`C=C(C)[C@@H]1CC[C@]2(COC(C)=O)CC[C@]3(C)[C@H](CC[C@@H]4[C@@]5(C)C(=O)c6nc(C)oc6C(C)(C)[C@@H]5CC[C@]43C)[C@@H]12`: the pIC50 in data set [1] is 4.62; in [2], 4.32; in data set [3], 4.40; in [4], 4.48; in data set [5], 4.65.

In the case of `C=C(C)[C@@H]1CC[C@]2(CO)CC[C@]3(C)[C@H](CC[C@@H]4[C@@]5(C)c6c(noc6C)C(=O)C(C)(C)[C@@H]5CC[C@]43C)[C@@H]12`, the pIC50 in [1] is under 4.00; in data set [2], 4.61; in data set [3], 4.51; in [4], 4.53; in data set [5], under 4.00.

As for `C=C(C)[C@@H]1CC[C@]2(C=O)CC[C@]3(C)[C@H](CC[C@@H]4[C@@]5(C)Cc6nn(C(C)=O)nc6C(C)(C)[C@@H]5CC[C@]43C)[C@@H]12`, the pIC50 in data set [1] is 4.27; in data set [2], under 4.00; in data set [3], under 4.00; in data set [4] it was under 4.00; in [5] it was 4.34.

For `C=C(C)[C@@H]1CC[C@]2(CO)CC[C@]3(C)[C@H](CC[C@@H]4[C@@]5(C)C/C(=N\O)C(=O)C(C)(C)[C@@H]5CC[C@]43C)[C@@H]12`, the pIC50 in data set [1] is 4.32; in [2], 4.56; in data set [3], under 4.00; in [4], 5.55; in [5], 4.45.

Turning to `C=C(C)[C@@H]1CC[C@]2(COC(C)=O)CC[C@]3(C)[C@H](CC[C@@H]4[C@@]5(C)Cc6nn(C(C)=O)nc6C(C)(C)[C@@H]5CC[C@]43C)[C@@H]12`, the pIC50 in [1] is under 4.00; in data set [2], under 4.00; in [3] it was 4.75; in data set [4], 4.65; in data set [5] it was under 4.00.

On to `C=C(C)[C@@H]1CC[C@]2(CO)CC[C@]3(C)[C@H](CC[C@@H]4[C@@]5(C)Cc6nn(C(C)=O)nc6C(C)(C)[C@@H]5CC[C@]43C)[C@@H]12`, for which the pIC50 in data set [1] is 4.68; in [2], 5.64; in data set [3], 5.13; in data set [4] it was 5.25; in data set [5], 5.35. Further, it took 12.7 µM to reach half-maximal inhibition in data set [6] (IC50 at 72 h). This compound had an LD50 at 336 h in data set [7] of over 600 mg/kg. In addition, the Activity entry was “Tde” in [8], 14.87% in data set [12], 1.04% in data set [13] and 3.14% in data set [14]. The result in data set [9], in data set [10], in data set [15], in [16], in [17] and in data set [18] was Active. In addition, the result in [19] and in [20] was Active. In addition, in data set [11], the viability at 5.7 µM came out at 80.9%.

In the case of `CC[C@@]1(O)C(=O)OCc2c1cc1n(c2=O)Cc2cc3ccccc3nc2-1` [CAMPTOTHECIN], the negative-log IC50 (pIC50) was 5.23 in data set [1]; 5.74 in data set [2]; 5.52 in data set [3]; 5.17 in [4]; 5.91 in data set [5]. In data set [6], this compound had an IC50 at 72 h of 0.89 µM. The result in data set [21], in [22], in [27], in data set [28] and in data set [29] was Active. For the same compound, the viability at 6.7 µM in data set [23] was found to be 80.9%. In addition, the Activity is listed as 12.44% in data set [24], 1.6% in [25] and 5.07% in data set [26].

For the compound `C=C(C)[C@@H]1CC[C@]2(COC(C)=O)CC[C@]3(C)[C@H](CC[C@@H]4[C@@]5(C)c6c(noc6C)C(=O)C(C)(C)[C@@H]5CC[C@]43C)[C@@H]12`, the pIC50 in [1] was 5.11; in data set [2] it was 4.85; in data set [3] it was 4.66; in [4], 4.72; in data set [5] it was 4.83.

In the case of `C=C(C)[C@@H]1CC[C@]2(CO)CC[C@]3(C)[C@H](CC[C@@H]4[C@@]5(C)C(=O)c6nc(C)oc6C(C)(C)[C@@H]5CC[C@]43C)[C@@H]12`, the pIC50 in data set [1] was 4.36; in data set [2], 4.57; in [3] it was 4.71; in [4], 4.80; in data set [5], under 4.00.

For the compound `C=C(C)[C@@H]1CC[C@]2(CO)CC[C@]3(C)[C@H](CC[C@@H]4[C@@]5(C)C=C(NC(C)=O)C(=O)C(C)(C)[C@@H]5CC[C@]43C)[C@@H]12`, the pIC50 in data set [1] is under 4.00; in data set [2] it was under 4.00; in data set [3] it was 4.98; in [4], 5.29; in data set [5] it was under 4.00.

`C=C(C)[C@@H]1CC[C@]2(CO)CC[C@]3(C)[C@H](CC[C@@H]4[C@@]5(C)Cc6c(nnc(C)[n+]6[O-])C(C)(C)[C@@H]5CC[C@]43C)[C@@H]12`: the pIC50 in data set [1] is under 4.00; in data set [2] it was 4.79; in [3], 5.35; in data set [4], 4.84; in [5], under 4.00.

As a reminder, the pIC50 is −log10 of the IC50, conventionally taken in molar units. A high value points to a low IC50. What is called IC50 is the midpoint of a concentration-inhibition curve. As a reminder, the LD50 is the dose expected to kill half of the subjects tested. The low end stands for a more toxic substance, the high end for a less toxic substance.
